Data reported in patent US9012398B2, “Acylated exendin-4 compounds” (priority 2006, dated 2015).
Read-outs that look alike come from different tables or passages of the source. Starred links: 1 amine or outer side, 2 acyl side, 3 side chain; linkers in the order of their positions; H or OH if unused. Residues, ends and D or L forms follow the SMILES beside them. Groups on a side chain read outwards from the residue. *: point of attachment. C18 diacid = O=C(O)CCCCCCCCCCCCCCCCC(=O)*; γGlu = O=C(O)[C@H](CCC(=O)[*:2])N[*:1]; Stearoyl = CCCCCCCCCCCCCCCCCC(=O)*; Palmitoyl = CCCCCCCCCCCCCCCC(=O)*; AEEA = NCCOCCOCC(=O)O

Target: T1, human GLP-1 receptor (Homo sapiens, UniProt P43220)
T1 construct: expressed in transfected cells; host or cells: BHK cells, clone BHK-467-12A; plasma membrane preparation
T1 sequence (P43220 24-463): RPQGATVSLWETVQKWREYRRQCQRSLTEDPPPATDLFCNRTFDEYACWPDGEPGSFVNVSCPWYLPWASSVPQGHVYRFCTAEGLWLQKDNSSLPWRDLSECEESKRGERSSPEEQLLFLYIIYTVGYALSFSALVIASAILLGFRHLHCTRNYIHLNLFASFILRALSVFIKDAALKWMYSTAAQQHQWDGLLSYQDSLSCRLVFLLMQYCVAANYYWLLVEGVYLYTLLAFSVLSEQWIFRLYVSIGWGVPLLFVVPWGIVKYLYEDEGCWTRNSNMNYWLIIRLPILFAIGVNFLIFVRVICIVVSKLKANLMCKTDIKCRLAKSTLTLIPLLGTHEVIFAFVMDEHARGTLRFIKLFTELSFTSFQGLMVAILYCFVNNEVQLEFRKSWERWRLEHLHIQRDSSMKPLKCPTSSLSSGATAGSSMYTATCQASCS
Assay: Functional receptor assay: cAMP formation in plasma membranes of BHK cells expressing the cloned human GLP-1 receptor (GLP1cAMPma)
Assay type: biochemical
Procedure: The term “insulinotropic agent” as used herein means a compound which is an agonist of the human GLP-1 receptor, i.e. a compound which stimulates the formation of cAMP in a suitable medium containing the human GLP-1 receptor (one such medium disclosed below). The potency of an insulinotropic agent is determined by calculating the EC50 value from the dose-response curve as described below.
The cells were washed twice in phosphate buffered saline and harvested with Versene. Plasma membranes were prepared from the cells by homogenisation with an Ultraturrax in buffer 1 (20 mM HEPES-Na, 10 mM EDTA, pH 7.4). The homogenate was centrifuged at 48,000×g for 15 min at 4° C. The pellet was suspended by homogenization in buffer 2 (20 mM HEPES-Na, 0.1 mM EDTA, pH 7.4), then centrifuged at 48,000×g for 15 min at 4° C. The washing procedure was repeated one more time. The final pellet was suspended in buffer 2 and used immediately for assays or stored at −80° C.
The functional receptor assay was carried out by measuring cyclic AMP (cAMP) as a response to stimulation by the insulinotropic agent. cAMP formed was quantified by the AlphaScreen™ cAMP Kit (Perkin Elmer Life Sciences). Incubations were carried out in half-area 96-well microtiter plates in a total volume of 50 μL buffer 3 (50 mM Tris-HCl, 5 mM HEPES, 10 mM MgCl2, pH 7.4) and with the following additions: 1 mM ATP, 1 μM GTP, 0.5 mM 3-isobutyl-1-methylxanthine (IBMX), 0.01% Tween-20, 0.1% BSA, 6 μg membrane preparation, 15 μg/mL acceptor beads, 20 μg/mL donor beads preincubated with 6 nM biotinyl-cAMP. […] GTP was freshly prepared for each experiment. The plate was incubated in the dark with slow agitation for three hours at room temperature followed by counting in the Fusion™ instrument (Perkin Elmer Life Sciences). Concentration-response curves were plotted for the individual compounds and EC50 values estimated using a four-parameter logistic model with Prism v. 4.0 (GraphPad, Carlsbad, Calif.).

[1] = cAMP, membranes with human GLP-1 receptor, mean value, read-out: GLP1cAMPma (3693) [EC50 (nM)] Mean Value

Structure (SMILES): CCCCCCCCCCCCCCCCCC(=O)N[C@@H](CCC(=O)NCCOCCOCC(=O)NCCOCCOCC(=O)NCCCC[C@H](NC(=O)[C@@H]1CCCN1C(=O)CNC(=O)CNC(=O)[C@H](CCCNC(=N)N)NC(=O)[C@@H](NC(=O)[C@H](CC(C)C)NC(=O)[C@H](Cc1c[nH]c2ccccc12)NC(=O)[C@H](CCC(=O)O)NC(=O)[C@@H](NC(=O)[C@H](Cc1ccccc1)NC(=O)[C@H](CC(C)C)NC(=O)[C@H](CCCNC(=N)N)NC(=O)[C@@H](NC(=O)[C@H](C)NC(=O)[C@H](CCC(=O)O)NC(=O)[C@H](CCC(=O)O)NC(=O)[C@H](CCC(=O)O)NC(=O)[C@H](CC(C)C)NC(=O)[C@H](CCC(N)=O)NC(=O)[C@H](CCCNC(=N)N)NC(=O)[C@H](CO)NC(=O)[C@H](CC(C)C)NC(=O)[C@H](CC(=O)O)NC(=O)[C@H](CO)NC(=O)[C@@H](NC(=O)[C@H](Cc1ccccc1)NC(=O)[C@@H](NC(=O)CNC(=O)[C@H](CCC(=O)O)NC(=O)CNC(=O)[C@@H](N)Cc1c[nH]cn1)[C@@H](C)O)[C@@H](C)O)C(C)C)[C@@H](C)CC)C(C)C)C(=O)N[C@@H](CO)C(=O)NCC(=O)N[C@@H](C)C(=O)N1CCC[C@H]1C(=O)N1CCC[C@H]1C(=O)N1CCC[C@H]1C(=O)N[C@@H](CO)C(N)=O)C(=O)O [Example 17, N-ε^32-(2-(2-(2-(2-(2-(2-(4-(Octadecanoylamino)-4(S)-carboxybutyrylamino))ethoxy)ethoxy)acetylamino)ethoxy)ethoxy)acetyl[Arg^12,Leu^14,Val^27,Arg^28,Lys^32]Exendin-4-(1-39)amide] (H-HGEGTFTSDLSRQLEEEAVRLFIEWLVRGGPK([AEEA-AEEA-γGlu-Stearoyl])SGAPPPS-NH2; N-terminus assumed)
- EC50: 0.025 nM

Structure (SMILES): CCCCCCCCCCCCCCCCCC(=O)NCCOCCOCC(=O)NCCOCCOCC(=O)NCCOCCOCC(=O)NCCCC[C@H](NC(=O)[C@@H](NC(=O)[C@H](CC(C)C)NC(=O)[C@H](Cc1c[nH]c2ccccc12)NC(=O)[C@H](CCC(=O)O)NC(=O)[C@@H](NC(=O)[C@H](Cc1ccccc1)NC(=O)[C@H](CC(C)C)NC(=O)[C@H](CCCNC(=N)N)NC(=O)[C@@H](NC(=O)[C@H](C)NC(=O)[C@H](CCC(=O)O)NC(=O)[C@H](CCC(=O)O)NC(=O)[C@H](CCC(=O)O)NC(=O)[C@H](CC(C)C)NC(=O)[C@H](CCC(N)=O)NC(=O)[C@H](CCCNC(=N)N)NC(=O)[C@H](CO)NC(=O)[C@H](CC(C)C)NC(=O)[C@H](CC(=O)O)NC(=O)[C@H](CO)NC(=O)[C@@H](NC(=O)[C@H](Cc1ccccc1)NC(=O)[C@@H](NC(=O)CNC(=O)[C@H](CCC(=O)O)NC(=O)CNC(=O)[C@@H](N)Cc1c[nH]cn1)[C@@H](C)O)[C@@H](C)O)C(C)C)[C@@H](C)CC)C(C)C)C(=O)NCC(=O)NCC(=O)N1CCC[C@H]1C(=O)N[C@@H](CO)C(=O)N[C@@H](CO)C(=O)NCC(=O)N[C@@H](C)C(=O)N1CCC[C@H]1C(=O)N1CCC[C@H]1C(=O)N1CCC[C@H]1C(=O)N[C@@H](CO)C(N)=O [Example 3, N-ε^28-(2-(2-(2-(2-(2-(2-(2-(2-(2-(Octadecanoylamino)ethoxy)ethoxy)acetylamino)ethoxy)ethoxy)acetyl-amino)ethoxy)ethoxy)acetyl))[Arg^12,Leu^14,Val^27,Lys^28 Exendin-4(1-39)amide] (H-HGEGTFTSDLSRQLEEEAVRLFIEWLVK([AEEA-AEEA-AEEA-Stearoyl])GGPSSGAPPPS-NH2; N-terminus assumed)
- EC50: 0.025 nM

Structure (SMILES): CC[C@H](C)[C@H](NC(=O)[C@H](Cc1ccccc1)NC(=O)[C@H](CC(C)C)NC(=O)[C@H](CCCNC(=N)N)NC(=O)[C@@H](NC(=O)[C@H](C)NC(=O)[C@H](CCC(=O)O)NC(=O)[C@H](CCC(=O)O)NC(=O)[C@H](CCC(=O)O)NC(=O)[C@H](CCCCNC(=O)COCCOCCNC(=O)COCCOCCNC(=O)CCCCCCCCCCCCCCCCC(=O)O)NC(=O)[C@H](CCC(N)=O)NC(=O)[C@H](CCCNC(=N)N)NC(=O)[C@H](CO)NC(=O)[C@H](CC(C)C)NC(=O)[C@H](CC(=O)O)NC(=O)[C@H](CO)NC(=O)[C@@H](NC(=O)[C@H](Cc1ccccc1)NC(=O)[C@@H](NC(=O)CNC(=O)[C@H](CCC(=O)O)NC(=O)CNC(=O)[C@@H](N)Cc1c[nH]cn1)[C@@H](C)O)[C@@H](C)O)C(C)C)C(=O)N[C@@H](CCC(=O)O)C(=O)N[C@@H](Cc1c[nH]c2ccccc12)C(=O)N[C@@H](CC(C)C)C(=O)N[C@H](C(=O)N[C@@H](CCCNC(=N)N)C(=O)NCC(=O)NCC(=O)N1CCC[C@H]1C(=O)N[C@@H](CO)C(=O)N[C@@H](CO)C(=O)NCC(=O)N[C@@H](C)C(=O)N1CCC[C@H]1C(=O)N1CCC[C@H]1C(=O)N1CCC[C@H]1C(=O)N[C@@H](CO)C(N)=O)C(C)C [Example 27] (H-HGEGTFTSDLSRQK([AEEA-AEEA-C18 diacid])EEEAVRLFIEWLVRGGPSSGAPPPS-NH2; N-terminus assumed)
- EC50 [1]: 3.65 nM

Structure (SMILES): CCCCCCCCCCCCCCCC(=O)N[C@@H](CCC(=O)NCCOCCOCC(=O)NCCOCCOCC(=O)NCCCC[C@H](NC(=O)[C@@H](NC(=O)[C@H](C)NC(=O)[C@H](CCC(=O)O)NC(=O)[C@H](CCC(=O)O)NC(=O)[C@H](CCC(=O)O)NC(=O)[C@H](CC(C)C)NC(=O)[C@H](CCC(N)=O)NC(=O)[C@H](CCCNC(=N)N)NC(=O)[C@H](CO)NC(=O)[C@H](CC(C)C)NC(=O)[C@H](CC(=O)O)NC(=O)[C@H](CO)NC(=O)[C@@H](NC(=O)[C@H](Cc1ccccc1)NC(=O)[C@@H](NC(=O)CNC(=O)[C@H](CCC(=O)O)NC(=O)CNC(=O)[C@@H](N)Cc1c[nH]cn1)[C@@H](C)O)[C@@H](C)O)C(C)C)C(=O)N[C@@H](CC(C)C)C(=O)N[C@@H](Cc1ccccc1)C(=O)N[C@H](C(=O)N[C@@H](CCC(=O)O)C(=O)N[C@@H](Cc1c[nH]c2ccccc12)C(=O)N[C@@H](CC(C)C)C(=O)N[C@@H](CCCNC(=N)N)C(=O)N[C@@H](CCC(N)=O)C(=O)NCC(=O)NCC(=O)N1CCC[C@H]1C(=O)N[C@@H](CO)C(=O)N[C@@H](CO)C(=O)NCC(=O)N[C@@H](C)C(=O)N1CCC[C@H]1C(=O)N1CCC[C@H]1C(=O)N1CCC[C@H]1C(=O)N[C@@H](CO)C(N)=O)[C@@H](C)CC)C(=O)O [Example 18, N-ε^20-2-(2-(2-(2-(2-(2-(4-(Hexadecanoylamino)-4(S)-carboxybutyrylamino)ethoxy)ethoxy)acetylamino)ethoxy)ethoxy)acetyl[Arg^12,27,Leu^14,Lys^20,Gln^28]Exendin-4-(1-39)-peptide amide] (H-HGEGTFTSDLSRQLEEEAVK([AEEA-AEEA-γGlu-Palmitoyl])LFIEWLRQGGPSSGAPPPS-NH2; N-terminus assumed)
- EC50 [1]: 0.033 nM

Structure (SMILES): CC[C@H](C)[C@H](NC(=O)[C@H](Cc1ccccc1)NC(=O)[C@H](CC(C)C)NC(=O)[C@H](CCCCNC(=O)COCCOCCNC(=O)COCCOCCNC(=O)CCCCCCCCCCCCCCCCC(=O)O)NC(=O)[C@@H](NC(=O)[C@H](C)NC(=O)[C@H](CCC(=O)O)NC(=O)[C@H](CCC(=O)O)NC(=O)[C@H](CCC(=O)O)NC(=O)[C@H](CC(C)C)NC(=O)[C@H](CCC(N)=O)NC(=O)[C@H](CCCNC(=N)N)NC(=O)[C@H](CO)NC(=O)[C@H](CC(C)C)NC(=O)[C@H](CC(=O)O)NC(=O)[C@H](CO)NC(=O)[C@@H](NC(=O)[C@H](Cc1ccccc1)NC(=O)[C@@H](NC(=O)CNC(=O)[C@H](CCC(=O)O)NC(=O)CNC(=O)[C@@H](N)Cc1c[nH]cn1)[C@@H](C)O)[C@@H](C)O)C(C)C)C(=O)N[C@@H](CCC(=O)O)C(=O)N[C@@H](Cc1c[nH]c2ccccc12)C(=O)N[C@@H](CC(C)C)C(=O)N[C@@H](CCCNC(=N)N)C(=O)N[C@@H](CCC(N)=O)C(=O)NCC(=O)NCC(=O)N1CCC[C@H]1C(=O)N[C@@H](CO)C(=O)N[C@@H](CO)C(=O)NCC(=O)N[C@@H](C)C(=O)N1CCC[C@H]1C(=O)N1CCC[C@H]1C(=O)N1CCC[C@H]1C(=O)N[C@@H](CO)C(N)=O [Example 12, N-ε^20-(2-(2-(2-(2-(2-(2-(17-carboxyheptadecanoylamino)ethoxy)ethoxy)acetylamino)ethoxy)ethoxy)acetyl)[Arg12,Leu^14,Arg^27,Gln^28,Lys^20]Exendin-4 (1-39)amide] (H-HGEGTFTSDLSRQLEEEAVK([AEEA-AEEA-C18 diacid])LFIEWLRQGGPSSGAPPPS-NH2; N-terminus assumed)
- EC50 [1]: 5.45 nM
